The values that follow come from the pKa sets of Baltruschat and Czodrowski (2020).

In general, pKa refers to the negative logarithm of the acid dissociation constant. Take `O=N/C(Cc1ccccc1)=N\O`: the pKa (acidic group) was found to be 5.3. Still for that read-out and setting: as for `CC(C)[C@@]12C[NH2+][C@@H](C(=O)O)[C@@H]1CC(=O)O2`, the figure is 2.45; as for `O=C(O)c1cc(Br)cs1`, 3.11.

As to `CC(CC(C#N)(c1ccccc1)c1ccccc1)N1CCCCC1` (configuration not stated), for the setting “basic group”, the pKa turned out to be 7.73.

As for `COc1ccc(O)c(CN(C)C)c1`, the pKa was 11.5 (acidic group) and 8.7 (basic group). For `CCOC(=O)c1cnc2ccc([N+](=O)[O-])cc2c1[O-]`, the pKa (basic group) came to 8. Where the note is “acidic group”, `N#CCC[n+]1ccc(C(N)=O)cc1.[Br-]` registered a pKa of 13.3. The same measure, in the same setting: as for `O=c1oc2cc(O)ccc2cc1-c1ccccc1`, the figure is 7.8. In the case of `CN(C)CCCCCCCCCNC(=O)/C=N/[O-]`, the pKa (basic group) is 10.5. For `O=C1CC(=O)C(=O)C1`, the pKa (acidic group) amounted to 3. In turn, `Nc1ccc2ccccc2c1[N+](=O)[O-]` gave a pKa (basic group) of -0.92.

Consider `C=CCN1CC[C@]23c4c5ccc(O)c4O[C@H]2[C@@H](O)C=C[C@H]3[C@H]1C5`, for which, where the note is “basic group”, the pKa came to 7.83. Regarding `Nc1ccc(S(=O)(=O)Nc2ccccn2)cc1`, the pKa reads like this: (acidic group) 8.51; (basic group) 2.58. `COc1ccc2c(c1)NCC[NH2+]2`: the pKa (basic group) worked out at 1.93. On the same count and under the same terms, the figure for `CCCCOC(=N)c1ccccc1` is 6.09. Same read-out and setting: as for `CCNc1ccccc1`, the figure is 5.29. On to `S=c1[nH]c(=S)c2[nH]cnc2[nH]1`, for which the pKa (acidic group) was 5.02. Turning to `CCN(CC)NC`, where the note is “basic group”, the pKa was determined as 7.14. Regarding `Oc1cncc2ccccc12`, the pKa by setting is: (acidic group) 8.68; (basic group) 4.8.

The compound `Oc1onc2c1CC[NH2+]CC2` showed a pKa (acidic group) of 3.3. Regarding `c1cc(N2CCCC2)c2c(N3CCCC3)cccc2c1`, where the note is “basic group”, the pKa amounted to 9.97.

For `Cc1ccc2c(ccn2C)c1`, the pKa (basic group) was -2.15. As for `NCCc1ccc(O)c(O)c1`, the pKa came out at 10.6 (acidic group) and 8.89 (basic group).

For `CCOC(=O)c1cc(-c2ccccc2)nnc1NCCN1CCOCC1`, the pKa (basic group) came out at 6.67.

Regarding `NC1=[NH+][C@H]2C[C@@H](N1)N[C@@H]2C(=O)[O-]`, the pKa (basic group) came out at 5.5.

Consider `CCN(CC)CCCNc1ccnc2ccccc12`, for which the pKa (basic group) was found to be 10. Still for that read-out and setting: as for `CC(C(O)c1ccccc1)N(C)C` (configuration not stated), the figure is 9.3; as for `Oc1onc2c1CCNCC2`, 9.6. On to `O=S(=O)(O)c1ccc(O)cc1`, for which the pKa (acidic group) was found to be 4.51.

Take `O/N=C1\CCCc2nonc21`: the pKa (acidic group) was 8.78. In the case of `COc1ccc(O)c(/N=N/c2nc(C)cs2)c1`, the pKa stood at 7.98 (acidic group) and 0.77 (basic group). With `CCN(CC)CCS(=O)(=O)c1ccc(OC)c(OC)c1OC`, the pKa (basic group) stood at 7.41. With `CN(C)CC(C)(C)C`, the pKa (basic group) worked out at 9.75. In turn, `O=C(O)C1CCc2ccccc2O1` (configuration not stated) showed a pKa (acidic group) of 3.38. As to `CCN(CC)CCBr`, where the note is “basic group”, the pKa is 7. Same read-out and setting: the figure for `Cc1nc2cc(N)ccc2[nH]1` is 6.95; for `[O-]c1c(Cl)cc(Cl)c(Cl)c1CN1CCCCC1` it is 10.3. As to `Cc1cc(Cl)ccc1C(=O)O`, the pKa (acidic group) came to 3.75. Take `C[NH+](C)Cc1cnc2ccc(-c3ccccc3)nn12`: the pKa (basic group) was found to be 2.99. Same read-out and setting: as for `Cc1c(Cn2ccnc2)sc2ccc(C(=O)[O-])cc12`, the figure is 6.58. For the setting “acidic group”, `COC(=O)c1ccc(NC=S)cc1` registered a pKa of 10.9. For `N#CC(C#N)=NNc1cccc(Cl)c1Cl`, the pKa was 5.15 (acidic group) and -0.71 (basic group). For `CCCC1N=C(N)N=C(Nc2ccc(SC)cc2)N1` (configuration not stated), the pKa (basic group) turned out to be 10.6. As to `CN1CCOCC1`, under “basic group”, the pKa came to 7.66. Same read-out and setting: the figure for `CCCCCc1cccnn1` is 3.7. For the compound `Cc1cccc(C(=O)O)c1C`, where the note is “acidic group”, the pKa was found to be 3.73. Consider `c1cncc(-c2ccoc2)c1`, for which the pKa (basic group) amounted to 4.93. On the same count and under the same terms, the figure for `CCCCCCCCN(CC(O)CC)CC(O)CC` (configuration not stated) is 7.5; for `CC1=CC(=C2C=CC=CC=C2)C=C(C)C1=O` it is 6.26. `O=C(O)C[NH+](CCNS(=O)(=O)c1ccc(CCBr)cc1)CC(=O)O`: for the setting “acidic group”, the pKa came out at 2.15.

For the compound `Nc1ncnc2nn([C@@H]3C[C@@H](O)[C@H](CO)O3)nc12`, the pKa (basic group) was 3.1. Still for that read-out and setting: the figure for `COc1ccc2c(c1)CC(C)N2` (configuration not stated) is 6.2. `Oc1ccccc1I` displayed a pKa (acidic group) of 8.4. Same read-out and setting: as for `[NH3+]C(Cc1ccccc1)C(=O)O` (configuration not stated), the figure is 2.3. `Cc1ccncc1C` came in with a pKa (basic group) of 6.53. For the compound `N#Cc1ccc(O)cc1`, the pKa (acidic group) was determined as 7.89. On the same count and under the same terms, the figure for `O=C(O)C(=O)C(c1ccccc1)c1ccccc1` is 2.78. Compound `CC1CCNC(C)(C)C1` (configuration not stated) had a pKa (basic group) of 11.1. For the setting “acidic group”, `Cc1cccc([NH3+])c1C(=O)O` displayed a pKa of 3.2. Still for that read-out and setting: the figure for `Cc1[nH]c2ccccc2c1C(=O)O` is 5.89.

In the case of `CN(C)c1ncc2[nH]cnc2n1`, the pKa runs as follows: (acidic group) 10.2; (basic group) 4.02.

For the compound `O=C1C=CC(=O)/C(=N/O)N1`, the pKa (acidic group) came out at 8.4.

Where the note is “acidic group”, `O=C([O-])c1ccc(NS(=O)(=O)c2ccccc2)cc1` showed a pKa of 7.75.

For the setting “basic group”, `CN(C)/C=N/c1cccc([N+](=O)[O-])c1` came in with a pKa of 7.29. In the case of `O/N=C/c1ccncc1`, the pKa was found to be 9.91 (acidic group) and 4.58 (basic group). Compound `OCc1ccccn1` had a pKa (basic group) of 4.66. Take `Cc1ccc(C(O)CN)cc1` (configuration not stated): the pKa (basic group) is 9.06. As for `CC(C)(C)OC(=O)NC(CCC(N)=O)C(=O)O` (configuration not stated), the pKa (acidic group) amounted to 3.66. Where the note is “basic group”, `[NH3+]Cc1ccncc1` gave a pKa of 4.05. In the case of `Cc1c(Cn2cc[nH+]c2)n(C)c2ccc(C(=O)O)cc12`, for the setting “acidic group”, the pKa was determined as 4.08. On the same count and under the same terms, as for `Cc1ccc(C(=O)C[n+]2cccc3c4ccccc4ccc32)cc1`, the figure is 11.7. As for `CC(N)C(N)=O` (configuration not stated), the pKa (acidic group) came out at 8.02. Under “basic group”, `C=C1CC1C[C@H](N)C(=O)[O-]` (some centres not stated) gave a pKa of 9.37. Consider `CCCSC(C)C(=O)O` (configuration not stated), for which the pKa (acidic group) is 3.82. Where the note is “acidic group”, `[O-][N+]([O-])=C(CO)CO` yielded a pKa of 13.5.

For the compound `O=Cc1cc(Br)cc([N+](=O)[O-])c1O`, the pKa (acidic group) amounted to 4.46. On to `Cc1cnn(C)c1C`, for which the pKa (basic group) turned out to be 3.58. Turning to `NC1=NS(=O)(=O)Nc2nc[nH]c21`, the pKa was found to be 4.28 (acidic group) and 0.28 (basic group). For the compound `C[Si](C)(C)OC1CN(C2CCCCC2)C1`, the pKa (basic group) was 9.02. On the same count and under the same terms, as for `Nc1ccc2cnc3ccccc3c2c1`, the figure is 6.88. Take `CC(C)O`: the pKa (acidic group) worked out at 16.1.

Regarding `Cc1cccc([P+](c2cccc(C)c2)(c2cccc(C)c2)C2c3ccccc3-c3ccccc32)c1`, the pKa (acidic group) turned out to be 9.55. In turn, `CC1=NS(=O)(=O)c2cccnc2N1` yielded a pKa (acidic group) of 7.64. The compound `CCCCCCCCCCCN` had a pKa (basic group) of 10.6. As for `Oc1ccc2nccnc2c1`, the pKa is, setting by setting: (acidic group) 7.92; (basic group) 1.4. Compound `O=C(CCl)Nc1nnc(-c2ccccc2)s1` came in with a pKa (acidic group) of 6.9. On to `CC(C)(C)c1ccc(-c2c(O)c2=O)cc1`, for which the pKa (acidic group) amounted to 2.21. As for `Brc1cnc2ccccc2c1`, the pKa (basic group) was -0.44.

Compound `C[n+]1cccc(C(=O)O)c1` yielded a pKa (acidic group) of 2.29. `CCCn1ccnc1C` registered a pKa (basic group) of 8.2. On the same count and under the same terms, as for `Cc1ccccc1/C(=N\CCCN(C)C)c1ccccc1N`, the figure is 9; as for `Nc1ccc2c(c1)CCC2`, 5.35; as for `Nc1ccc(-c2cnc(-c3ccccc3)o2)cc1`, 3.68.

The compound `CC[NH+](CC)CCCC(C)Nc1ccnc2ccccc12` (configuration not stated) had a pKa (basic group) of 8.81. For the compound `CCCCCc1c(-c2ccccc2)n[nH]c1O`, the pKa (acidic group) was determined as 8.4. Still for that read-out and setting: the figure for `CC1(C)CC(=O)CC(=O)C1` is 5.21.

In turn, `[O-]/C(=C/c1ccncc1)c1ccccc1` returned a pKa (basic group) of 7.05. The same measure, in the same setting: as for `CCCNc1ncnc2c1cnn2C`, the figure is 4.25; as for `C=C(C)C(=O)NCCN(C)C`, 8.54. Same read-out and setting: as for `CCC(C)(C)N(C)C(C)(C)C`, the figure is 11.9. Regarding `[O-]c1cc(O)cc[nH+]1`, the pKa (acidic group) is 6.5. The same measure, in the same setting: the figure for `CC(=O)N1CS(=O)(=O)C[C@H]1C(=O)O` is 2.23. Take `O=C1CCC(=O)N1`: the pKa (acidic group) came out at 9.59. `CSC(=S)NCC(=O)O` displayed a pKa (acidic group) of 3.19. Regarding `Cc1nc(NCc2ccco2)c2cn[nH]c2n1`, the pKa (basic group) was determined as 4.65.

`CC(C)(Cl)C(=O)O`: the pKa (acidic group) came to 2.97.

`CN(C)c1ccc([N+](=O)[O-])cc1` registered a pKa (basic group) of 0.69. In the case of `Fc1cc(F)c(F)c(S)c1F`, the pKa (acidic group) came to 2.75. As to `Cc1c[nH+]c([O-])nc1N`, for the setting “basic group”, the pKa came out at 4.69. Same read-out and setting: as for `Cc1cc(NCCC[NH+](C)C)c2c([N+](=O)[O-])cccc2n1`, the figure is 6.41. On to `O=C(O)C1CC1(Cl)Cl` (configuration not stated), for which, under “acidic group”, the pKa was found to be 3.51.

With `C#CCNc1ccccc1`, the pKa (basic group) stood at 3.06. With `Cc1cccc2cccnc12`, the pKa (basic group) came to 4.87. In the case of `O=C(O)C1(O)CCCCCC1`, where the note is “acidic group”, the pKa turned out to be 4.04.

In the case of `Nc1ccc(-c2cnc(-c3ccc(Br)cc3)o2)cc1`, the pKa (basic group) worked out at 3.51. As to `Cc1nc(Cc2ccccc2)c(O)o1`, the pKa (acidic group) was 10.3. Turning to `CC(C)(O)C(C(=O)O)c1ccc(-c2ccccc2)cc1` (configuration not stated), for the setting “acidic group”, the pKa amounted to 3.76.

Compound `Cc1cc(Cl)ccc1O` registered a pKa (acidic group) of 9.6. For the setting “acidic group”, `Nc1nc2nc[nH]c2c([O-])[nH+]1` displayed a pKa of 9.39. With `C(=C/c1ccncc1)/c1ccccc1`, for the setting “basic group”, the pKa amounted to 5.77.

Take `CN(C)CCc1nnn[n-]1`: the pKa (basic group) was determined as 9.39. Take `NNC(=O)c1cccc(N)c1`: the pKa reads like this: (acidic group) 12.4; (basic group) 3.75. Take `C(=C/c1ccncc1)/c1ccncc1`: the pKa (basic group) worked out at 5.57. For the setting “basic group”, `CCOC(=O)C[C@H](N)c1ccccc1` showed a pKa of 8.32. Same read-out and setting: as for `CC(O)CN(CCN1CCOCC1)CC(C)O` (configuration not stated), the figure is 7.9; as for `c1cnc2c(c1)c1c(c3cccnc32)CCCC1`, 5.3; as for `Cc1cc(C)cc(N)c1`, 4.81. On the same count and under the same terms, the figure for `c1cc(N2CCOCC2)ccc1N1CCCCC1` is 6.7. Under “acidic group”, `Cc1c(C)c(O)c(C)c(C)c1O` registered a pKa of 11.3.

Turning to `[O-]c1ccc(F)cc1CN1CCCCC1`, the pKa (basic group) is 11.3. The compound `CNC(=O)CS` had a pKa (acidic group) of 8.05. `C/N=c1/oc2c(n1C)CCCC2`: under “basic group”, the pKa amounted to 10.2. Still for that read-out and setting: the figure for `CCOC(=O)C1CN2CCC1CC2` (configuration not stated) is 9.64. The same measure, in the same setting: as for `CCC(=O)C(CC(C)N1CCCCC1)(c1ccccc1)c1ccccc1` (configuration not stated), the figure is 8.58. In the case of `[NH3+][C@H]1CCC[C@@H](C(=O)O)C1`, the pKa (acidic group) worked out at 3.7.

The compound `Cc1c(O)cccc1C(=O)O` had a pKa (acidic group) of 3.83.
